{"source": "patent US11427588B2", "about": "“Compositions and methods for treating neurodegenerative diseases and cardiomyopathy” (THE REGENTS OF THE UNIVERSITY OF CALIFORNIA, priority 2013, dated 2022)", "molecules": {"B1": {"name": "PINK1^wt (Homo sapiens) (protein)", "chain": "LQGFRLEEYLIGQSIGKGCSAAVYEATMPTLPQNLEVTKSTGLLPGRGPGTSAPGEGQERAPGAPAFPLAIKMMWNISAGSSSEAILNTMSQELVPASRVALAGEYGAVTYRKSKRGPKQLAPHPNIIRVLRAFTSSVPLLPGALVDYPDVLPSRLHPEGLGHGRTLFLVMKNYPCTLRQYLCVNTPSPRLAAMMLLQLLEGVDHLVQQGIAHRDLKSDNILVELDPDGCPWLVIADFGCCLADESIGLQLPFSSWYVDRGGNGCLMAPEVSTARPGPRAVIDYSKADAWAVGAIAYEIFGLVNPFYGQGKAHLESRSYQEAQLPALPESVPPDVRQLVRALLQREASKRPSARVAANVLHLSLWGEHILALKNLKLDKMVGWLLQQSAATLLANRLTEKCCVETKMKMLFLANLECETLCQAALLLCSWRAAL", "notes": "kinase domain with c-terminal extension (PINK1, residues 148-581) with a C-terminal FLAG3 tag; made in house; host or cells: baculovirus / Sf21 insect cells"}}, "key": {"HeLa cells": {"tested_on": "HeLa cells", "assay": "Parkin recruitment to depolarized mitochondria in HeLa cells, PINK1 form not stated", "type": "cell-based", "description": "Parkin phosphorylation and mitochondrial translocation assay: HeLa cells were grown in DMEM supplemented with 10% FBS. Log phase cells were plated in 24 well plates with glass coverslips (Mattek) pretreated with fibronectin. Cells were pretreated with 50 μM of the indicated compound, followed by transfection with MitoGFP, mCherry Parkin, and full length PINK1FLAG3 in a 1:4:2 ratio using Fugene 6 (Promega). Fields of cells were selected by expression of MitoGFP (6 fields/well-3 wells/condition) and imaged at five-minute intervals following depolarization with 5 μM CCCP. Quantification was performed according to published protocols^3 and by creation of a Matlab based script.\nOur ability to enhance PINK1 activity in-vitro using KTP led us to investigate means by which to achieve enhanced activity in cells expressing PINK1. […] We treated cells with either kinetin or adenine (FIG. 2A) and measured Parkin localization following mitochondrial depolarization with CCCP (FIG. 2B). HeLa cells, which have low levels of endogenous PINK1 and PARKIN, were transfected with wildtype or PINK1^G309D, mCherryParkin, and mitoGFP. After 48 hours of incubation with 25 μM adenine, kinetin or equivalent DMSO, we imaged CCCP-mediated depolarization of mitochondria (FIGS. 2C, 2D) and calculated the percentage of GFP labelled mitochondria with mCherryParkin associated (FIG. 2E). […]"}, "[1]": {"tested_on": "PINK1 knockout derived hippocampal neurons", "assay": "Mitochondrial motility assay in axons", "type": "cell-based, mouse", "source_text": "(§1) Mitochondrial motility assay: Primary hippocampal neuronal cultures were co-transfected with mitochondrial targeted GFP (mitoGFP) and mCherry-tagged synaptophysin (mCherrySynaptophysin) to allow for the live identification of mitochondria in axons.\n(§2) To test if kinetin decreases motility we examined the mobility of axonal mitochondria in hippocampal neurons. Primary hippocampal neuronal cultures were co-transfected with mitoGFP and mCherry-tagged Synaptophysin (mCherrySynaptophysin) to allow for the live identification of mitochondria in axons. […] To test the PINK1 dependency of this process, we treated control mouse C57 (PINK1 wildtype) and PINK1 knockout derived hippocampal neurons with kinetin or 9MK and imaged their mitochondria."}, "rat hippocampal neurons": {"tested_on": "rat hippocampal neurons", "assay": "Mitochondrial motility assay in axons", "type": "cell-based", "details": "50 μM, 48 hours pre-treatment", "source_text": "as §1, §2"}, "PINK1^wt": {"target": "PINK1^wt (Homo sapiens, UniProt Q9BXM7)", "assay": "PINK1 kinase assay with ATP analogs (autophosphorylation, TRAP1 transphosphorylation)", "type": "biochemical, H. sapiens", "design": "kinase domain with c-terminal extension (PINK1, residues 148-581) with a C-terminal FLAG3 tag; made in house; host or cells: baculovirus / Sf21 insect cells", "details": "for transphosphorylation of TRAP1, activity versus ATP: GST tagged kinase domain 156-496 expressed in E. coli; for utilization to phosphorylate TRAP1: SF21 expressed PINK1", "source_text": "(§3) We expressed both PINK1^wt and PINK1^G309D GST tagged kinase domain (156-496PINK1) in E. coli and performed kinase assays with a series of ATP analogs.\n(§4) Expression, purification and enzymatic characterization of PINK1: H. sapiens PINK1 kinase domain (PINK1, residues 156-496) with an N-terminal GST tag was expressed using a pGEX vector using standard techniques. H. sapiens PINK1 kinase domain with c-terminal extension (PINK1, residues 148-581) with a C-terminal FLAG3 tag was co-expressed with full length TRAP1 baculovirus/Sf21 insect cell system. […] The reaction was performed using 50 mM Tris-HCl, 150 mM NaCl, 10 mM MgCl2, 3 mM MnCl2, 0.5 mM DTT and 1 mg/ml substrate if indicated.\n(§5) We constructed several FLAG3 tagged truncation variants of PINK1 and induced expression using baculovirus infected SF21 insect cells.\n(§6) We expressed GST tagged kinase domain (PINK11156-496) in E. coli and performed a kinase assay."}, "PINK1^G309D": {"target": "PINK1^G309D (Homo sapiens, UniProt Q9BXM7, G309D)", "sequence (Q9BXM7 148-581 G309D)": "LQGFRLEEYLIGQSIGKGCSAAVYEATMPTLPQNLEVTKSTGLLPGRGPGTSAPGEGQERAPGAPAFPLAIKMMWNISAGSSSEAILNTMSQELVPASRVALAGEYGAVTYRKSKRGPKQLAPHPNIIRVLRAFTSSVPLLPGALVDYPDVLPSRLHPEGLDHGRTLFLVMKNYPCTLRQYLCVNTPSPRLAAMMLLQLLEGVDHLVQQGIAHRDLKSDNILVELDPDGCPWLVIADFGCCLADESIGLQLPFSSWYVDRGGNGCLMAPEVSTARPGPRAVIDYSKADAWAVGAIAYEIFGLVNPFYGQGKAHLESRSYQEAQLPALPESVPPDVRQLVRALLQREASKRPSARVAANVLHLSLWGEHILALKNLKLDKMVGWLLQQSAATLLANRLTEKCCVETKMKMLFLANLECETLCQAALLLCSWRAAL", "assay": "PINK1 kinase assay with ATP analogs (autophosphorylation, TRAP1 transphosphorylation)", "type": "biochemical, H. sapiens", "design": "kinase domain with c-terminal extension (PINK1, residues 148-581) with a C-terminal FLAG3 tag; made in house; host or cells: baculovirus / Sf21 insect cells", "details": "GST tagged kinase domain 156-496 expressed in E. coli", "source_text": "as §3, §4, §5, §6"}, "[2]": {"substrate": "Nc1ncnc2c1ncn2[C@@H]1O[C@H](COP(=O)(O)OP(=O)(O)OP(=O)(O)O)[C@@H](O)[C@H]1O", "assay": "purified protein, by the assay type", "type": "biochemical, H. sapiens", "details": "other: catalytic constants for PINK1, nucleotide as substrate, autophosphorylation, SF21 expressed PINK1 148-581"}, "[3]": {"details": "catalytic constants for PINK1, nucleotide as substrate, autophosphorylation, SF21 expressed PINK1 148-581"}}, "data": [{"molecule": "c1ccc(CNc2ncnc3nc[nH]c23)cc1", "note": "[N6 benzyl adenine, reference compound]", "values": [{"measurement": "Parkin recruitment to CCCP depolarized mitochondria", "setting": "HeLa cells", "value": "less active than kinetin"}]}, {"molecule": "Cn1cnc2c(NCc3ccco3)ncnc21", "note": "[9-methyl-Kinetin, reference compound]", "values": [{"measurement": "mitochondrial motility", "setting": "[1]", "value": "no change in motility"}, {"measurement": "mitochondrial movement / motility", "setting": "rat hippocampal neurons", "value": "did not affect mitochondrial motility"}]}, {"molecule": "N^6 furfuryl ATP [KTP]", "values": [{"measurement": "PINK1 activity stimulation versus other N6 substituted ATP analogs", "setting": "PINK1^wt; FIG. 12", "value": "stimulated"}, {"measurement": "transphosphorylation of TRAP1, activity versus ATP", "setting": "PINK1^wt", "value": "amplified"}, {"measurement": "transphosphorylation of TRAP1, activity versus ATP", "setting": "PINK1^wt; listed as N^6 FF ATP", "value": "more efficiently than ATP"}, {"measurement": "fold higher Vmax versus ATP", "setting": "PINK1^wt; PINK1 autophosphorylation", "value": 1.84, "unit": "fold"}, {"measurement": "utilization to phosphorylate TRAP1", "setting": "PINK1^wt", "value": "utilizes"}, {"measurement": "Km", "setting": "PINK1^wt; [3]", "value": 51.7, "unit": "µM"}, {"measurement": "Vmax", "setting": "PINK1^wt; [3]", "value": "0.0098 ± 0.002", "unit": "min⁻¹"}, {"measurement": "autophosphorylation", "setting": "PINK1^G309D", "value": "increased levels of autophosphorylation"}, {"measurement": "transphosphorylation of TRAP1, activity versus ATP", "setting": "PINK1^G309D", "value": "amplified"}, {"measurement": "transphosphorylation of TRAP1, activity versus ATP", "setting": "PINK1^G309D; listed as N^6 FF ATP", "value": "increased catalytic rate than ATP"}]}, {"molecule": "O=P(O)(O)OP(=O)(O)OP(=O)(O)OC[C@H]1O[C@@H](n2cnc3c(NCc4ccccc4)ncnc32)[C@H](O)[C@@H]1O", "note": "[N^6 Benzyl, N^6 Benzyl ATP, reference compound]", "values": [{"measurement": "utilization to phosphorylate TRAP1", "setting": "PINK1^wt", "value": "not"}]}, {"molecule": "O=P(O)(O)OP(=O)(O)OP(=O)(O)OC[C@H]1O[C@@H](n2cnc3c(NCCc4ccccc4)ncnc32)[C@H](O)[C@@H]1O", "note": "[N^6 Phenethyl ATP, reference compound]", "values": [{"measurement": "utilization to phosphorylate TRAP1", "setting": "PINK1^wt", "value": "not"}]}, {"molecule": "B1", "values": [{"measurement": "Km", "setting": "[2]", "value": 18.4, "unit": "µM"}, {"measurement": "kcat", "setting": "[2]", "value": "8.83e-05 ± 1.7e-05", "unit": "s⁻¹"}]}]}
